Laboratory results as given in US4661596A, “Quinolinyl (or pyridinyl) methoxy substituted naphthalene compounds as antiallergic agents” (American Home Products Corporation, priority 1985, dated 1987).

Assays:
[1] = tested on: synthesis of 5-HETE by rat glycogen-elicited polymorphonuclear leukocytes; assay: inhibition of 5-HETE synthesis by rat glycogen-elicited polymorphonuclear leukocytes; format: cell-based, rat (female Wistar); settings: Leukocyte; 50 μM unless otherwise stated; rat PMN, A23187 (10 μM) and [14C] arachidonic acid, 10 minutes preincubation
Description: This is especially true with respect to 5,12-diHETE, which is also denoted as LTB4 [see Ford-Hitchinson, J. Roy. Soc. Med., 74, 831 (1981)]. The assay of this Example measures the ability of the compounds of the invention to inhibit the synthesis of 5-HETE by rat glycogen-elicited polymorphonuclear leukocytes.
The array is carried out as follows:
Peritoneal PMN are obtained from female Wistar rats (150-250 g) that received an i.p. injection of 6% glycogen (10 mL). After 24 hours, rats are killed by CO2 asphyxiation and peritoneal cells are harvested by peritoneal lavage using Ca^++ and Mg^++ free Hanks' balanced salt solution (HBSS). The peritoneal exudate is centrifuged at 400 g for 10 minutes. After centrifugation, the lavaged fluid is removed and the cell pellet is resuspended in HBSS containing Ca^++ and Mg^++ and 10 mM L-cysteine at a concentration of 2×10^7 cells/mL. To 1 mL portions of cell suspension, test drugs or vehicle are added and incubated at 37° C. for 10 minutes. Following this preincubation, the calcium ionophore (10 μM), A23187, is added together with 0.5 μCi [^14 C] arachidonic acid and further incubated for 10 minutes. The reaction is stopped by the addition of ice cold water (3 mL) and acidifying to pH 3.5. Lipoxygenase products are then extracted twice into diethyl ether. The pooled ether extracts are evaporated to dryness under nitrogen and the residue is redissolved in a small volume of methanol and spotted on aluminum backed pre-coated thin layer chromatographic plates. The samples are then co-chromatographed with authentic reference 5-HETE in the solvent system-hexane:ether:acetic acid (50:50:3). After chromatography, the areas associated with 5-HETE standard are identified by autoradiography, cut out and quantitated by liquid scintillation.
Results are expressed as % inhibition of [^14 C]5-HETE synthesis. [formula]
Testing compounds of the invention in this assay the following results are obtained, where the concentration of the compounds tested is 50 μM unless otherwise stated.

[2] = tested on: LTD4 induced bronchoconstriction; assay: in vivo inhibition of LTD4-induced bronchospasm in guinea pigs; design: species or system guinea pig (male Hartley); settings: 50 mg/kg intraduodenal; 10 minutes before induction of bronchospasm by LTD4; average of 6 experiments

| SMILES | inhibition at 50 µM [1] | % Inhibition (Statistical Average) Overflow Volume at 5 min. [2] |
| --- | --- | --- |
| Oc1ccc2ccc(OCc3ccc4ccccc4n3)cc2c1 [Example 2, 7-(2-quinolinylmethoxy)-2-naphthalenol] | > 50% |  |
| O=S(=O)(Nc1ccc2ccc(OCc3ccc4ccccc4n3)cc2c1)C(F)(F)F [Example 10, N-[7-(2-quinolinylmethoxy)-2-naphthalenyl]trifluoromethane sulfonamide] |  | 99.0% |
| Oc1ccc2ccc(OCc3ccccn3)cc2c1 [Example 5, 7-(2-pyridinylmethoxy)-2-naphthalenol] | > 50% |  |
| Nc1ccc2ccc(OCc3ccc4ccccc4n3)cc2c1 [Example 7, 7-(2-quinolinylmethoxy)-2-naphthalenamine] | > 50% | 88.7% |
| C=C1CCCc2ccc(OCc3ccc4ccccc4n3)cc21 [Example 9, 2-[[(5,6,7,8-tetrahydro-8-methylene-2-naphthalenyl)oxy]methyl]quinoline] | > 50% |  |
| COc1ccc2ccc(OCc3ccc4ccccc4n3)cc2c1 [Example 3, 2-[[(7-methoxy-2-naphthalenyl)oxy]methyl]quinoline] | > 50% |  |
| Oc1ccc2ccc(OCc3nc4ccccc4s3)cc2c1 [Example 4, 7-(2-benzothiazolylmethoxy)-2-naphthalenol] | > 50% |  |
| OC1CCCc2ccc(OCc3ccc4ccccc4n3)cc21 (stereo not shown) [Example 1, 1,2,3,4-Tetrahydro-7-(2-quinolinylmethoxy)-1-naphthalenol] | > 50% | 56.1% |
| Nc1cccc2ccc(OCc3ccc4ccccc4n3)cc12 [Example 6, 7-(2-quinolinylmethoxy)-1-naphthalenamine] | > 50% |  |
| CCS(=O)(=O)Nc1ccc2ccc(OCc3ccc4ccccc4n3)cc2c1 [Example 8, N-[7-(2-quinolinylmethoxy)-2-naphthalenyl]ethane sulfonamide] | > 50% | 90.6% |
